Consider 1 compound from ChEMBL document CHEMBL1150638, “An unusual sesquiterpene derivative from Ferula kuhistanica” (J Nat Prod, 2002).

Calls of active or inactive are those of the source. No cut-off for these calls is given here.

One test relates to HCT-116. Kind of test: Cytotoxicity against human HCT116 cells after 2 days by MTT assay. In kind it is functional, cell-based. Particulars: HCT-116, 48 h.
The test system of test [1] is Staphylococcus aureus. Kind of test: Antibacterial activity against methicillin-resistant Staphylococcus aureus. It counts as functional, organism-based.
The subject of test [2] is Staphylococcus aureus. Kind of test: Antibacterial activity against methicillin-sensitive Staphylococcus aureus. In kind it is functional, organism-based.

Take `CC(=O)CC[C@@]1(C)CC[C@]2(C(C)C)O[C@@H](O)[C@H](OC(=O)c3ccc(O)cc3)[C@H]12` [KUHISTAFERONE]: half-maximal inhibition in the test with HCT-116 (IC50) was put at 181 µM. For the same compound, the result in the test with Staphylococcus aureus [1] and in the test on Staphylococcus aureus [2] was inactive.
